This is an account of results in patent US7420043B2, “Reagents for detecting efavirenz” (priority 2003, dated 2008).

Like-named read-outs stand apart in the source and are kept apart here.

Data set [1] relates to monoclonal antibody EFA 97.1. As to the kind of experiment: Cross-reactivity assay (competitive ELISA, ED50 ratio). The format is binding, mouse. To be noted: ED50 of efavirenz divided by ED50 of the drug, times 100. From the text:
Supernatants were subjected to serial dilutions and retested in the ELISA screen above omitting the competitive inhibition with free drug. The dilution providing for approximately a 50% reduction from the maximum OD was chosen for proceeding to cross-reactivity testing. This comprised repeating the preceding assay with the antibody at the chosen dilution and in the presence of varying concentrations of different drugs. FIG. 8 presents the results of such a determination.
For orientation: In an ELISA, binding on a coated surface is turned into a signal by an enzyme label.

The test system of a further data set is HIV. As to conditions: cited from earlier work.
For data set [2] the following is noted: Physician's Desk Reference; cited from earlier work.
The conditions of data set [3]: cited from earlier work.

For `Cc1cn([C@H]2C=C[C@@H](CO)O2)c(=O)[nH]c1=O` [2′,3′-didehydro-3′-deoxythymidine], the “% Cross-reactivity” value in data set [1] came to 0%.

With `Cc1cn([C@H]2C[C@H](N=[N+]=[N-])[C@@H](CO)O2)c(=O)[nH]c1=O` [3′-azido-3′-deoxythymidine], the “% Cross-reactivity” value in data set [1] turned out to be 0%.

Regarding `CC(C)CN(C[C@@H](O)[C@H](Cc1ccccc1)NC(=O)O[C@H]1CCOC1)S(=O)(=O)c1ccc(N)cc1` [amprenavir], the “% Cross-reactivity” value in data set [1] is reported as 0%.

With `COC(=O)N[C@H](C(=O)N[C@@H](Cc1ccccc1)[C@@H](O)CN(Cc1ccc(-c2ccccn2)cc1)NC(=O)[C@@H](NC(=O)OC)C(C)(C)C)C(C)(C)C` [atazanavir], the “% Cross-reactivity” value in data set [1] came out at 0%.

For `CC(C)Nc1cccnc1N1CCN(C(=O)c2cc3cc(NS(C)(=O)=O)ccc3[nH]2)CC1` [delaviridine], in data set [1], the “% Cross-reactivity” value was 0%.

Consider `O=C1Nc2ccc(Cl)cc2[C@@](C#CC2CC2)(C(F)(F)F)O1` [efavirenz], for which the “virological failure, % of patients” value in the data set on HIV (patients with low plasma levels of efavirenz, <1000 μg/L, 85 total patients) is on record as 50%; in the data set on HIV (plasma levels 1000-4000 μg/L or more than 4000 μg/L) it was 18-22%. For the same molecule, in data set [2], the peak levels was 12.9 µM. Also, the “% Cross-reactivity” value in data set [1] is reported as 100%. The “CNS toxicity frequency, high versus mid plasma levels” value in data set [3] (>4000 μg/L compared with 1000-4000 μg/L) was “approximately three times more frequent”. Besides, the “patients discontinuing therapy because of severity or persistence of CNS side effects” value in data set [3] (patients receiving efavirenz) was “about 4%”. Besides, in data set [3] (patients receiving efavirenz), the “patients reporting CNS side effects (dizziness, hallucinations, nightmares, insomnia)” value is 20-40%.

On to `CC(C)(C)NC(=O)[C@@H]1CN(Cc2cccnc2)CCN1C[C@@H](O)C[C@@H](Cc1ccccc1)C(=O)N[C@H]1c2ccccc2C[C@H]1O` [indinavir], for which the “% Cross-reactivity” value in data set [1] is 0%.

As for `Cc1cccc(C)c1OCC(=O)N[C@@H](Cc1ccccc1)[C@@H](O)C[C@H](Cc1ccccc1)NC(=O)[C@H](C(C)C)N1CCCNC1=O` [lopinavir], the “% Cross-reactivity” value in data set [1] was 0%.

Take `Cc1c(O)cccc1C(=O)N[C@@H](CSc1ccccc1)[C@H](O)CN1C[C@H]2CCCC[C@H]2C[C@H]1C(=O)NC(C)(C)C` [nelfinavir]: in data set [1], the “% Cross-reactivity” value is 0%.

Take `Cc1ccnc2c1NC(=O)c1cccnc1N2C1CC1` [nevirapine]: in data set [1], the “% Cross-reactivity” value stood at 0%.

As to `CC(C)c1nc(CN(C)C(=O)N[C@H](C(=O)N[C@@H](Cc2ccccc2)C[C@H](O)[C@H](Cc2ccccc2)NC(=O)OCc2cncs2)C(C)C)cs1` [ritonavir], the “% Cross-reactivity” value in data set [1] stood at 0%.

In the case of `CC(C)(C)NC(=O)[C@@H]1C[C@@H]2CCCC[C@@H]2CN1C[C@@H](O)[C@H](Cc1ccccc1)NC(=O)[C@H](CC(N)=O)NC(=O)c1ccc2ccccc2n1` [saquinavir], the “% Cross-reactivity” value in data set [1] was 0%.
